In patent EP0233441A1, “New enzyme inhibitor” (Astra Läkemedel Aktiebolag, priority 1985, dated 1987):

Assays:
CMP-KDO synthetase (CKS) = biological target: T1, CMP-KDO synthetase (CKS) (Escherichia coli, UniProt P04951); test: CKS Assay (enzyme inhibition); assay type: biochemical; settings: percent of a control without inhibitor, read-out: Percentage of inhibition of CKS
T1 construct: made in house
Experimental: (§1) Potential inhibitors were tested for inhibitory action against two key enzymes involved in the biosynthesis of bacterial LPS.
I. CMP-KDO synthetase (CKS) which catalyses the reaction [drawing 20]
The CKS enzyme was prepared essentially as described by Osborne [J-.Biol.Chem. […]] and the enzyme assayed by the method of Ghalambor and Heath (J.Biol.Chem. 241 (1966) 3216-3221).
(§2) Inhibition of CKS and KLT enzymes by compound I is given in Table I. The inhibitory action is expressed in percent of a control without inhibitor run simultaneously.

[1] = biological target: CMP-KDO lipid A transferase (KLT) (Salmonella typhimurium, UniProt Q8ZL49); test: KLT Assay (incorporation of [14-C]-labelled CMP-KDO into acid-insoluble product; CMP-KDO generated in situ by added CKS); assay type: biochemical; settings: percent of a control without inhibitor, read-out: Percentage of inhibition of KLT
Chain of CMP-KDO lipid A transferase (KLT) (Q8ZL49 entry or part of it): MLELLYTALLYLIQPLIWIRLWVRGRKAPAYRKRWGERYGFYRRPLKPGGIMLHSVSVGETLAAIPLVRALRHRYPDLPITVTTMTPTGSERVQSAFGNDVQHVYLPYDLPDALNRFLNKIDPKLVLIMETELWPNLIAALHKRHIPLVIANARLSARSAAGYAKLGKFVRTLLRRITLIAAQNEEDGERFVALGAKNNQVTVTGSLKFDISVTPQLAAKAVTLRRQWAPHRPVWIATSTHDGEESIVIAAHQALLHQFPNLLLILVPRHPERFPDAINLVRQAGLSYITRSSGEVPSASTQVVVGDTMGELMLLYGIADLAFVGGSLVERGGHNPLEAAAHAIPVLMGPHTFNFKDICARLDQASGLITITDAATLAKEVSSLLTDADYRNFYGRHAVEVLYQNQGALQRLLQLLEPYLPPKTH
Experimental: as §1
CMP-KDO lipid A transferase (KLT) which transfers CMP-KDO to an intermediate in the biosynthesis of LPS known as lipid A precursor [drawing 21]
The KLT enzyme was purified essentially by the method of Osborne (J.Biol.Chem. 252 (1977) 4895-4903). KLT activity was determined by monitoring the incorporation of [14-C]-labelled CMP-KDO into acid- insoluble product. The radio labelled CMP-KDO was generated in situ from CTP and [14-C]-KDO by the action of added CKS enzyme. The incubation mixture contained CKS enzyme, KLT enzyme, 110 mM Tris buffer pH 8.0, 10.6 mM NaCl, 0.5 mM CTP, 0.4%, Alfonic 1012-6 (Trade name), 0.16 mM [14-c] KDO and lipid A precursor. The final reaction volume was 150 µl. The mixture was incubated at 25°C for 15 min., when 50 µl was transferred to a filter paper circle (Munktell No. 5,24 mm.) and then washed copiously with 10% TCA. The radioactivity adsorbed on the paper circle, which represents radiolabelled KDO bound to precursor was determined using liquid scintillation counting.
as §2

T1 sequence (P04951 whole entry): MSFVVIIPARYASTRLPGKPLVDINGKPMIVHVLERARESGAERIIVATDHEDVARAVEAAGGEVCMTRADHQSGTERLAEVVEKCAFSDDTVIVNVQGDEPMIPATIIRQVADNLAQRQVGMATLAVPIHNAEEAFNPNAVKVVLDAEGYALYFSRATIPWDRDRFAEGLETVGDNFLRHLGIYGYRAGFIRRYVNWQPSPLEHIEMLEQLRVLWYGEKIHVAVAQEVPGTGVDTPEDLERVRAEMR

Compound O=C(O)[C@@H]1C[C@@H](O)[C@@H](O)[C@@H]([C@H](O)CO)O1 [compound I, ammonium 2,6-anhydro-3-deoxy-D- -glycero-D -talo-octonate] has an inhibition at 2.5 µM (CMP-KDO synthetase (CKS); 0.0025 mM compound) of 8%, an inhibition at 10 µM (CMP-KDO synthetase (CKS); 0.01 mM compound) of 36% and an inhibition at 40 µM (CMP-KDO synthetase (CKS); 0.04 mM compound) of 68%. It also gave an inhibition at 160 µM (CMP-KDO synthetase (CKS); 0.16 mM compound) of 90%, an inhibition at 640 µM (CMP-KDO synthetase (CKS); 0.64 mM compound) of 98% and an inhibition at 2540 µM (CMP-KDO synthetase (CKS); 2.54 mM compound) of 99%. For the same compound, the inhibition at 10160 µM (CMP-KDO synthetase (CKS); 10.16 mM compound) was 98%, the inhibition at 0.625 µM ([1]; 0.000625 mM compound) was 5% and the inhibition at 2.5 µM ([1]; 0.0025 mM compound) was 24%. It also gave an inhibition at 10 µM ([1]; 0.01 mM compound) of 57%, an inhibition at 40 µM ([1]; 0.04 mM compound) of 81% and an inhibition at 160 µM ([1]; 0.16 mM compound) of 89%. The inhibition at 640 µM ([1]; 0.64 mM compound) was 98%.
